Columns and labels:
[1] = tested on: hamsters with cerebellar ataxia; assay: Rotarod test in hamsters with cerebellar ataxia; type: in vivo, hamster; details: for time (sec) endured until falling from rotarod apparatus / improving effect on motor coordination (in words): cerebellar ataxia hamsters; for improving effect on motor coordination (in words): agents of Example 1 compared among pentamethine cyanine dye compounds; for Time of falling from rotarod: hamster with cerebellar ataxia, agent of Example 1, 0.5 ml/hamster intraperitoneally once a day for 56 days
Text: Since NK-4 was confirmed to have a neurodegenerative inhibitory action in Experiment 1, hamsters with cerebellar ataxia (cerebellar ataxia is called “cerebellar A” and hamsters with cerebellar ataxia are called “hamsters with cerebellar A”, hereinafter) as a suitable model for human neurodegenerative diseases (e.g., spinal cerebellar degeneration) were subjected to examine the influence of NK-4 administration on their behaviors and brain tissues. Twenty-five hamsters with natural mutation (Nna1 inhibition), which are known to lose Purkinje's cells after three-weeks of age and then induce a spontaneous onset of kinetic motor ataxia after seven-weeks of age (see Akita K. et al., “J. Neurogenetics”, Vol. 21, pp. 19-29, 2007), had been fed at Hayashibara Biochemical Laboratories., Inc., Okayama, Japan, were randomly allocated to the test groups 1 to 5, five heads in each group, as shown in Table 2. Prior to the onset of cerebellar A (at three-weeks of age), PBS was started to administer to the hamsters in the test group 1 at a dose of 10 ml/kg/day. Prior to the onset of cerebellar A (at three-weeks of age), NK-4 was started to be administered to the hamsters in the test groups 2 to 4 at a daily dose of 20 μg/kg, 100 μg/kg or 500 μg/kg. “IGF-1, human, a product name of insulin-like growth factor, commercialized by Assaypro LLC, MO, USA. These administered ingredients were intraperitoneally administered daily to hamsters once a day up to 10-weeks of age. The degree of symptom of cerebellar A and the improvement effect on the symptom by NK-4 were evaluated with an index of improvement in motor coordination of hamsters by conducting once a week the later described rotarod test and the slant tolerance test. At the age of 10-weeks, the hamsters were subjected to counting the falling down frequency and extracted their brains, which were then histologically evaluated. In parallel, the concentration of glutamic acid in the bloods and cerebrospinal fluids (CSF) of the hamsters was assayed. As a test group 6, five normal hamsters, with the same age as the hamsters with cerebellar A used in the test groups 1 to 5, were provided and tested similarly as the hamsters with cerebellar A in such a manner of intraperitoneally administering PBS to them at a dose of 10 ml/kg/day once a day up to 10-weeks of age.
As an index for coordinated movement, it was used a duration time of hamster's movement to staying on a rotarod by locomotion in synchronization with the turn of the rotarod; placing a hamster on an apparatus with a rotarod (having a diameter of 60 mm, prepared by Hayashibara Biochemical Laboratories, Inc., Okayama, Japan), turning at a constant rate of six rpm, and measuring the time until the hamster falls down from the rotarod (see Fernandez et al., “Proc. Natl. Acad. Sci. USA”, Vol. 95, pp. 1253-1258, 1998). The test was repeated six times for each hamster, where five-times of tests starting from the initiation of the test were made as a preliminary examination, and the time until each hamster fell down from the rotarod (called “falling time”, hereinafter) was measured, followed by averaging the falling times for each group consisting of five heads. The falling time was measured until 180 seconds. Based on the results, the relationship between the age and the falling time for each hamster with cerebellar A (test group 1) administered with PBS was graphed. […]
Similarly as in Experiment 2, 130 hamsters with cerebellar ataxia, born within the same week and 3-weeks of age, were randomly divided into 13 groups, consisting of 10 hamsters, respectively. […]

[2] = tested on: ICR mice administered with amyloid β fragment; assay: Novel object recognition test, mouse administered with amyloid β fragment, agents of Example 1; type: in vivo; set-up: key: (novel − memorized seeking time)/(novel + memorized seeking time); details: agent of Example 1, 0.3 ml/head intraperitoneally once a day up to the 8th day
Protocol: One hundred and thirty ICR mice (commercialized by Charles Liver Laboratories Japan Inc., Kanagawa, Japan) were randomly divided into 13 groups, consisting of 10 mice in each group. Amyloid β fragment, represented by an amino acid sequence of SEQ ID NO: 1, used in Experiment 3 was aged at 37° C. for four days, and administered to the lateral ventricle of each mouse in an amount of 9 nmol/6 μl/mouse (the administration method is referred to “Brain Research”, Vol. 706, pp. 181-193 (1996)). […] The mice (10 heads) in the remaining one group were intraperitoneally administered with a sterilized 10% maltose solution (pyrogen-free) once a day up to the 8th day in an amount of 0.3 ml/mouse (control). On the 8th day after the administration, novel object recognition test (see, Japanese Patent Kokai No. 2008-193941) was performed and the average discrimination index (the ratio of prolonged seeking time for novel object to the total seeking time) as a cognitive function index were shown in Table 26. On the 9th day after the administration, the brain of the mice was anatomically isolated, prepared into tissue samples in conventional manner. Depositions of aggregation of amyloid fragment were observed by staining with Congo red or thioflavin T, and degeneration or defect of hippocampal pyramidal cells concerned with cognitive function. The degeneration or the defect of hippocampal pyramidal cells was evaluated by 4-point grade score, by regarding the condition of the control without administration of amyloid β fragment as “none (O)”, “slight (1)”, “moderate (2)”, and “sever (3)”, and the average scores of 10 mice are shown in Table 20.
An experiment apparatus (a glass box of 30 cm in depth, 45 cm in width, and 30 cm in height) and two kinds of objects to be memorized by mice were provided. On the day before the test, the mice were allowed to seek freely in the experiment apparatus with no seeking object for 10 minutes for acclimation. On the test day, the following test was performed twice at an interval of 60 minutes. In the first trial, the same two objects were placed in the apparatus at its both ends, and the mouse was allowed to seek freely for 10 minutes. On the second trial, one of the objects used in the first test was replaced with a different kind of object, and then the mouse was allowed to seek freely for five minutes. In each experiment, when the mouse brought its muffle close to the object within 1-cm apart from the object, or made its muffle or whiskers to contact with the object, the mouse was judged to have a seeking behavior, and the seeking time thereof was measured. The object discrimination index [={(seeking time for novel object)−(seeking time for memorized object)}/{(seeking time of novel object)+(seeking time of memorized object)}] was calculated. The object discrimination index means the ratio of an increased seeking time for novel object to the total seeking time, and the ratio becomes larger when the memory of the once sought object was more strongly held, and it becomes smaller when the memory was more weakly held.

PC12-HS cells = assay: Evaluation B: neurite-outgrowth action in presence of NGF; type: cell-based, rat
[3] = compound concentration 80 ng/ml
[4] = compound concentration 400 ng/ml
[5] = compound concentration 2000 ng/ml
[6] = compound concentration 10000 ng/ml

## CCN1C=CC(=CC=C(C=Cc2cc[n+](CC)c3ccccc23)c2cc[n+](CC)c3ccccc23)c2ccccc21.[I-].[I-] [NK-4]
[1]; 20 μg/kg body weight, 6-Weeks
  Delayed days until the onset of cerebellar ataxia in hamster: 11 days
[1]; 20 μg/kg body weight, 7-Weeks
  Delayed days until the onset of cerebellar ataxia in hamster: 17 days
[1]; 20 μg/kg body weight, 8-Weeks
  Delayed days until the onset of cerebellar ataxia in hamster: 17 days
[1]; 20 μg/kg body weight, 9-Weeks
  Delayed days until the onset of cerebellar ataxia in hamster: 27 days
[1]; 20 μg/kg body weight, 10-Weeks
  Delayed days until the onset of cerebellar ataxia in hamster: 32 days
[1]; 100 μg/kg body weight, 5-Weeks
  Delayed days until the onset of cerebellar ataxia in hamster: 7 days
[1]; 100 μg/kg body weight, 6-Weeks
  Delayed days until the onset of cerebellar ataxia in hamster: 14 days
[1]; 100 μg/kg body weight, 7-Weeks
  Delayed days until the onset of cerebellar ataxia in hamster: 21 days
[1]; 100 μg/kg body weight, 8-Weeks
  Delayed days until the onset of cerebellar ataxia in hamster: 21 days
[1]; 100 μg/kg body weight, 9-Weeks
  Delayed days until the onset of cerebellar ataxia in hamster: 29 days
[1]; 100 μg/kg body weight, 10-Weeks
  Delayed days until the onset of cerebellar ataxia in hamster: 36 days
[1]; 500 μg/kg body weight, 5-Weeks
  Delayed days until the onset of cerebellar ataxia in hamster: 6 days
[1]; 500 μg/kg body weight, 6-Weeks
  Delayed days until the onset of cerebellar ataxia in hamster: 14 days
[1]; 500 μg/kg body weight, 7-Weeks
  Delayed days until the onset of cerebellar ataxia in hamster: 21 days
[1]; 500 μg/kg body weight, 8-Weeks
  Delayed days until the onset of cerebellar ataxia in hamster: 21 days
[1]; 500 μg/kg body weight, 9-Weeks
  Delayed days until the onset of cerebellar ataxia in hamster: 28 days
[1]; 500 μg/kg body weight, 10-Weeks
  Delayed days until the onset of cerebellar ataxia in hamster: 35 days
[1]; 20 μg/kg body weight i.p. once a day from 3-weeks of age, 4-Weeks
  time (sec) endured until falling from rotarod apparatus: 152 ± 4 s
[1]; 20 μg/kg body weight i.p. once a day, 5-Weeks
  time (sec) endured until falling from rotarod apparatus: 53 ± 5 s
[1]; 20 μg/kg body weight i.p. once a day, 6-Weeks
  time (sec) endured until falling from rotarod apparatus: 89 ± 9 s
[1]; 20 μg/kg body weight i.p. once a day, 7-Weeks
  time (sec) endured until falling from rotarod apparatus: 74 ± 10 s
[1]; 20 μg/kg body weight i.p. once a day, 8-Weeks
  time (sec) endured until falling from rotarod apparatus: 36 ± 2 s
[1]; 20 μg/kg body weight i.p. once a day, 9-Weeks
  time (sec) endured until falling from rotarod apparatus: 48 ± 3 s
[1]; 20 μg/kg body weight i.p. once a day, 10-Weeks
  time (sec) endured until falling from rotarod apparatus: 40 ± 4 s
[1]; 100 μg/kg body weight i.p. once a day, 4-Weeks
  time (sec) endured until falling from rotarod apparatus: 136 ± 5 s
[1]; 100 μg/kg body weight i.p. once a day, 5-Weeks
  time (sec) endured until falling from rotarod apparatus: 145 ± 8 s
[1]; 100 μg/kg body weight i.p. once a day, 6-Weeks
  time (sec) endured until falling from rotarod apparatus: 139 ± 10 s
[1]; 100 μg/kg body weight i.p. once a day, 7-Weeks
  time (sec) endured until falling from rotarod apparatus: 122 ± 7 s
[1]; 100 μg/kg body weight i.p. once a day, 8-Weeks
  time (sec) endured until falling from rotarod apparatus: 79 ± 12 s
[1]; 100 μg/kg body weight i.p. once a day, 9-Weeks
  time (sec) endured until falling from rotarod apparatus: 66 ± 6 s
[1]; 100 μg/kg body weight i.p. once a day, 10-Weeks
  time (sec) endured until falling from rotarod apparatus: 66 ± 6 s
[1]; 500 μg/kg body weight i.p. once a day, 4-Weeks
  time (sec) endured until falling from rotarod apparatus: 156 ± 5 s
[1]; 500 μg/kg body weight i.p. once a day, 5-Weeks
  time (sec) endured until falling from rotarod apparatus: 95 ± 8 s
[1]; 500 μg/kg body weight i.p. once a day, 6-Weeks
  time (sec) endured until falling from rotarod apparatus: 119 ± 4 s
[1]; 500 μg/kg body weight i.p. once a day, 7-Weeks
  time (sec) endured until falling from rotarod apparatus: 145 ± 7 s
[1]; 500 μg/kg body weight i.p. once a day, 8-Weeks
  time (sec) endured until falling from rotarod apparatus: 85 ± 8 s
[1]; 500 μg/kg body weight i.p. once a day, 9-Weeks
  time (sec) endured until falling from rotarod apparatus: 60 ± 7 s
[1]; 500 μg/kg body weight i.p. once a day, 10-Weeks
  time (sec) endured until falling from rotarod apparatus: 52 ± 5 s
[1]
  improving effect on motor coordination (in words): particularly high improving effect on motor coordination
  Time of falling from rotarod: 88.4 ± 3.2 s
[1]; from rotarod falling time vs test group 1, 20 μg/kg body weight, 5-Weeks
  Delayed days until the onset of cerebellar ataxia in hamster: 0 days
[2]
  Object discrimination index: 0.1
PC12-HS cells; 50 μl of 400 ng/ml test sample solution per well + NGF final 5 ng/ml, 3 days
  Evaluation B: Neurite-outgrowth action: ∘ (The test sample with a neurite outgrowth rate of 30% or higher was judged to be equivalent or more (∘) compared with NK-4)
PC12-HS cells; [3]
  Action on neurite outgrowth (%): 25 ± 9%
PC12-HS cells; [4]
  Action on neurite outgrowth (%): 35 ± 9%
PC12-HS cells; [5]
  Action on neurite outgrowth (%): 52 ± 4%
PC12-HS cells; [6]
  Action on neurite outgrowth (%): 14 ± 6%
PC12-HS cells; final concentration of compound 200 ng/ml
  Rate of cells exhibiting neurite outgrowth (%): 22 ± 8%
PC12-HS cells; final concentration of compound 400 ng/ml
  Rate of cells exhibiting neurite outgrowth (%): 31 ± 14%
PC12-HS cells; final concentration of compound 800 ng/ml
  Rate of cells exhibiting neurite outgrowth (%): 51 ± 3%
PC12-HS cells; final concentration of compound 1600 ng/ml
  Rate of cells exhibiting neurite outgrowth (%): 49 ± 8%

## CCCCN1C=C/C(=C/C=C(/C=C/c2cc[n+](CCCC)c3ccccc23)c2cc[n+](CCCC)c3ccccc23)c2ccccc21 [NK-26]
[1]
  improving effect on motor coordination (in words): particularly high improving effect on motor coordination
  Time of falling from rotarod: 90.0 ± 7.1 s
[2]
  Object discrimination index: 0.1
PC12-HS cells; [3]
  Action on neurite outgrowth (%): 72 ± 4%
PC12-HS cells; [4]
  Action on neurite outgrowth (%): 71 ± 7%
PC12-HS cells; [5]
  Action on neurite outgrowth (%): 25 ± 7%
PC12-HS cells; [6]
  Action on neurite outgrowth (%): 10< %

## CCCCCCCCN1C=CC(=CC=C(C=Cc2cc[n+](CCCCCCCC)c3ccccc23)c2cc[n+](CCCCCCCC)c3ccccc23)c2ccccc21.[I-].[I-] [NK-147]
[1]
  Time of falling from rotarod: 56.5 ± 9.8 s
[2]
  Object discrimination index: 0.2
PC12-HS cells; [3]
  Action on neurite outgrowth (%): 32 ± 7%
PC12-HS cells; [4]
  Action on neurite outgrowth (%): 50 ± 5%
PC12-HS cells; [5]
  Action on neurite outgrowth (%): 70 ± 11%
PC12-HS cells; [6]
  Action on neurite outgrowth (%): 35 ± 14%

Reference: patent publication US20120035187A1 (priority 2009, published 2012)
